Measured values published in PMC11874007, “Switching Roles—Exploring Concentration-Dependent Agonistic versus Antagonistic Behavior of Integrin Ligands” (Journal of Medicinal Chemistry, 2025).
Non-standard residues stand in square brackets, D forms with d. NMeV = CN[C@H](C(=O)O)C(C)C

What was measured:
human αvβ3-integrin = molecular target: T1, human αvβ3-integrin (Homo sapiens, UniProt P05106+P06756); conditions: previously published values; cited from earlier work
T1 construct: purchased R&D 3050-AV-050
T1 sequence (P06756 31-992 limits assumed): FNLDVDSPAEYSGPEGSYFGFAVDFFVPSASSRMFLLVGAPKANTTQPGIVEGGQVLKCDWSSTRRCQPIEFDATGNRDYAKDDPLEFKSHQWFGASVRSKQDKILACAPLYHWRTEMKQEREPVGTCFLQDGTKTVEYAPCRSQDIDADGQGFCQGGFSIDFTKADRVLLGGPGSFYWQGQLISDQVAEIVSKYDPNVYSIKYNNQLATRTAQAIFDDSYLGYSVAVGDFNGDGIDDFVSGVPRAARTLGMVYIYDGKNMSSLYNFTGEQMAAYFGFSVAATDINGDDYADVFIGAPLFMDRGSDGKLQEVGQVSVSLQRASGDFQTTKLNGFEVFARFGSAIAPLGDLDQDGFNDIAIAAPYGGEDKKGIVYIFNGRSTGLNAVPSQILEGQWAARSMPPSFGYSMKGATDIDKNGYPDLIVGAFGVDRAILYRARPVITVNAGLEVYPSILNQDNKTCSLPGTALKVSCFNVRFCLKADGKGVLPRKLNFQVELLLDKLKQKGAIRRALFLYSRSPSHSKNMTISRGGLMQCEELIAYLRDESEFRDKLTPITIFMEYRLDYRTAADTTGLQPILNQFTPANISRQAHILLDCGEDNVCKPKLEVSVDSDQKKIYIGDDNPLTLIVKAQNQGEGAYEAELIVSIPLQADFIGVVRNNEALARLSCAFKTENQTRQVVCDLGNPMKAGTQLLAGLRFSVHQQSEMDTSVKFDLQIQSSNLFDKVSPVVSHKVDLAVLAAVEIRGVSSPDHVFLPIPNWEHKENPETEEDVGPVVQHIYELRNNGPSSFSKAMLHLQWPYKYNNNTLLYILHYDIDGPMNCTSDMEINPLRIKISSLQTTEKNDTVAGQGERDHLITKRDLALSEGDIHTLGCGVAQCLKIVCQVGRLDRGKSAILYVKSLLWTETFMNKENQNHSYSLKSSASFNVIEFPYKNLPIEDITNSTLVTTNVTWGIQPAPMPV
T1 sequence (P05106 27-718 limits assumed): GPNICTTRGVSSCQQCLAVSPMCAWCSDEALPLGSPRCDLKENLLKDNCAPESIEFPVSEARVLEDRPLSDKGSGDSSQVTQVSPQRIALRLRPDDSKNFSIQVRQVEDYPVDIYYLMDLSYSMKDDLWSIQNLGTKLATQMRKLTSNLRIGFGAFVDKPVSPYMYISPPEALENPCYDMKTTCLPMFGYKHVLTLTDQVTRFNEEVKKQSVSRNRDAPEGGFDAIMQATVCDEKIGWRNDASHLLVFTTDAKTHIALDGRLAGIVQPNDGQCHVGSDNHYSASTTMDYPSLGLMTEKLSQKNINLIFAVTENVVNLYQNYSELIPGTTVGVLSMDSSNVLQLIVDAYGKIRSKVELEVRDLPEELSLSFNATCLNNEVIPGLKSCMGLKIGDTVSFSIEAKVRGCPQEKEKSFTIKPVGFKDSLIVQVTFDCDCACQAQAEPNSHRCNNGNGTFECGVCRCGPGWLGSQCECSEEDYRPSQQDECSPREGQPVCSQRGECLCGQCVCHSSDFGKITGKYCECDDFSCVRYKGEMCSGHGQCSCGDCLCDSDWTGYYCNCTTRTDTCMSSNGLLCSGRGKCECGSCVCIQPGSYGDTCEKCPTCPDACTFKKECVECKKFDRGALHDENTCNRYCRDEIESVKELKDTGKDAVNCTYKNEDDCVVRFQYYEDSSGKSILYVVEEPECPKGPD

human α5β1-integrin = molecular target: T2, human α5β1-integrin (Homo sapiens, UniProt P05556+P08648); conditions: previously published values; cited from earlier work
T2 construct: purchased R&D 3230-A5-050
T2 sequence (P08648 42-995 limits assumed): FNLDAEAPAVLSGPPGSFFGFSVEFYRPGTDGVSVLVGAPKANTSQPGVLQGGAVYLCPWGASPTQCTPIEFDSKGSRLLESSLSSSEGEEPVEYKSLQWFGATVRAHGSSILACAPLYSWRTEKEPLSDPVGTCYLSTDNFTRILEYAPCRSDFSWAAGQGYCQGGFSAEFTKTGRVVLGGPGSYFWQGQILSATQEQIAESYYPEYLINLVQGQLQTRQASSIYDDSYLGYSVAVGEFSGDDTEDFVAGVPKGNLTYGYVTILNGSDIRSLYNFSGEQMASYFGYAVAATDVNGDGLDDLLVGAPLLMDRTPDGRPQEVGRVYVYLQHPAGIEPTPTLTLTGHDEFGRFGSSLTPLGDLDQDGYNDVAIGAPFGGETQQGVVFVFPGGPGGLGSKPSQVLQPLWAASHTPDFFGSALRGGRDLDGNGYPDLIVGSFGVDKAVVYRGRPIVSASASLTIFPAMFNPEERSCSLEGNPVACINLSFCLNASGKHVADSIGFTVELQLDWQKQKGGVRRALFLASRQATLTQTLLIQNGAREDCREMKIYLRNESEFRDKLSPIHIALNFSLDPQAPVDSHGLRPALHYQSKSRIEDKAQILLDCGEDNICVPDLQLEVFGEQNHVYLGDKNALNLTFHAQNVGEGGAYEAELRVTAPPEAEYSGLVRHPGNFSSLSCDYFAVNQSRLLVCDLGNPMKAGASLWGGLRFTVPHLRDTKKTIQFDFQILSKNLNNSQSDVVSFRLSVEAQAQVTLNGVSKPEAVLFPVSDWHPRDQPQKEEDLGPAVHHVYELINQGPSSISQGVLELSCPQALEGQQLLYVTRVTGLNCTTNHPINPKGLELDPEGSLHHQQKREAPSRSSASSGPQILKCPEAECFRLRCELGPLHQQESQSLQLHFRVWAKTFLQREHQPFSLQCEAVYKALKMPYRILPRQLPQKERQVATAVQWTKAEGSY
T2 sequence (P05556 21-728 limits assumed): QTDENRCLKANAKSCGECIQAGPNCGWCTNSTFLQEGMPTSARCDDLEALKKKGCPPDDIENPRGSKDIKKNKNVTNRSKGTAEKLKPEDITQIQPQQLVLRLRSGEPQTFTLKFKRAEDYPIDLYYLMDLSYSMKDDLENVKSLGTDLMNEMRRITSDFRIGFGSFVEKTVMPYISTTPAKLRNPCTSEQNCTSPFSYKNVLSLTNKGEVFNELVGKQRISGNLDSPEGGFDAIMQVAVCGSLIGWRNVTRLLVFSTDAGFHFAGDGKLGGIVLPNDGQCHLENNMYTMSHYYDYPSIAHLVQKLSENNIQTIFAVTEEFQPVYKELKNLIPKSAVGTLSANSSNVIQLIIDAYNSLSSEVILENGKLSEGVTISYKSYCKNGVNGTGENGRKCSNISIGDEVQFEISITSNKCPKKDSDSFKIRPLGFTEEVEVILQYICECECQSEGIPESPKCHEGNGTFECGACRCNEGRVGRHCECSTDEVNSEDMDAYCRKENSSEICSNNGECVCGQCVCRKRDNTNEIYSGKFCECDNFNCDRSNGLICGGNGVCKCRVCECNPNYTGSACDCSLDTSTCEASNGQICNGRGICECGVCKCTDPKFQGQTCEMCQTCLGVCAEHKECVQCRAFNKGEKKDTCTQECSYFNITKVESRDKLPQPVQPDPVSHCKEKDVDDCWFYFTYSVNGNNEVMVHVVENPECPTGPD

human αvβ6-integrin = molecular target: T3, human αvβ6-integrin (Homo sapiens, UniProt P06756+P18564); conditions: previously published values; cited from earlier work
T3 construct: purchased R&D 3817-AV-050
T3 sequence (P06756 31-992 limits assumed): as the sequence (P06756 31-992 limits assumed) above
T3 sequence (P18564 22-707 limits assumed): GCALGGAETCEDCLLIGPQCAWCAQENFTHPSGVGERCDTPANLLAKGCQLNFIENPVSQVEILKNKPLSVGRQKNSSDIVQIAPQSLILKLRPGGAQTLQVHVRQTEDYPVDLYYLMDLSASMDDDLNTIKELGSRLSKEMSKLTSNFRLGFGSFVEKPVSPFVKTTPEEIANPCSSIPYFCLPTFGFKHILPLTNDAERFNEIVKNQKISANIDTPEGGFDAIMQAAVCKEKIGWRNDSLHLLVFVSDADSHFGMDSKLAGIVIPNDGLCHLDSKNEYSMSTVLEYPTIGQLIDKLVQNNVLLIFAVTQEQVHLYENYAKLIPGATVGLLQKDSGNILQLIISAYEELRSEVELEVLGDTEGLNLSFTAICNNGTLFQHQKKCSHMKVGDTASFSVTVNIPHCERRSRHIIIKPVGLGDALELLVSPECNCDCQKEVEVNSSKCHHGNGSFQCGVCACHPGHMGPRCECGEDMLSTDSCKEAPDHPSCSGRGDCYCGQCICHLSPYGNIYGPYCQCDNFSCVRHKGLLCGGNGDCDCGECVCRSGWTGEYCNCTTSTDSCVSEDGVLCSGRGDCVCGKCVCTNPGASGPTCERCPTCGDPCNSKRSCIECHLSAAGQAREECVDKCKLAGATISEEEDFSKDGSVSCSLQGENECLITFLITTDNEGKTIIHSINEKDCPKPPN

[1] = system: FAK, p-FAK, p44/42erk-1/2, p-p44/42erk-1/2 in αvβ3+ M21 cells; assay: Western blot of FAK and p44/42erk-1/2 expression and activation, M21 cells; type: cell-based
Method: (§1) Since agonistic ligand performance requires integrin activation and signaling, by Western blot analysis, we studied whether the different ligands alter the expression levels and activation states of FAK and p44/42^(erk-1/2). For this, the respective target integrin-expressing tumor cell types were incubated with the corresponding subtype-selective ligand at a concentration of 1 μM for 24 h (Figure 8). […] Signal intensities of FAK and p44/42^(erk-1/2) expression and activation (p-FAK and p-p44/42^(erk-1/2)) on Western blots were evaluated by densitometry. Data are depicted as GAPDH-normalized fluorescence signal intensities as n-fold, by setting values obtained for the respective untreated cells to “1”. […] MAPK p44/42^(erk-1/2) expression was approximately 2.2-fold augmented, p44/42^(erk-1/2) by approximately 2.5-fold. It also raised activation of p-FAK and p-p44/42^(erk-1/2) by approximately 2.2-fold and 3.1-fold, respectively, in α5β1+ OV-MZ-6 cells. […] Additionally, it raised FAK (approximately 1.7-fold) and p-p44/42^(erk-1/2) (approximately 2.4-fold) in α5β1+ OV-MZ-6 cells.
(§2) Figure 8 Effects of ligands on cellular expression and activation of integrin-related signaling molecules FAK and p44/42^(erk-1/2). […] Signal intensities for FAK and p-FAK, respectively, were evaluated by use of the Bio-Rad Imager Gel Doc XR+ and a ChemiDoc XRS+ Systems and the software Image Lab. Shown are typical representative Western blot images and the corresponding histograms depicting GAPDH-normalized signal intensities as n-fold by setting the values obtained for untreated cells to “1” (drawn as black line). For each cell line, cutouts of identical gels are depicted.
(§3) In order to capture early and transient changes in signaling activation following ligand treatment, we next reduced the observation periods to 5, 30, or 60 min and assessed FAK expression and activation. […] Depicted are typical Western blot images and the corresponding densitometrical evaluations of GAPDH-normalized signal intensities as n-fold, by setting that of the respective untreated cell type to “1” (Figure 9). […]
(§4) The kinases (p-)p44/42^(erk-1/2) and (p-)FAK were detected as previously published.[15],[8] Briefly, cells were grown for 18 h on six-well plates in DMEM (0.45 Mio cells/well). After medium exchange, fresh medium with L1–L5 (concentration: 1.0 μM, 2 mL/well) was added, and cells were incubated for another 24 h at 37 °C. In a second series, cells were incubated with L1–L5 (1 μM or 1 nM) for 5, 30, or 60 min. Thereafter, the cellular proteins were extracted and processed by Western blotting. Proteins were visualized using the Pierce ECL chemiluminescent substrate (Thermo Fisher Scientific). Band signal intensities for (p-)p44/42^(erk-1/2) and (p-)FAK were evaluated using the Bio-Rad Imager Gel Doc XR + and ChemiDoc XRS + Systems and the software Image Lab. Differences in protein loading and blotting efficiency were normalized by reprobing the membranes with a monoclonal antibody directed to GAPDH. Signal intensities for protein bands of interest were normalized to those recorded for GAPDH. Typical Western blot images are depicted together with histograms summarizing the mean values of normalized fluorescence signal intensities as n-fold, by setting those obtained for untreated cells to “1”.

[2] = system: FAK, p-FAK, p44/42erk-1/2, p-p44/42erk-1/2 in α5β1+ OV-MZ-6 cells; assay: Western blot of FAK and p44/42erk-1/2 expression and activation, OV-MZ-6 cells; type: cell-based; conditions: 1 μM, 5, 30 or 60 min
Method: as §1, §2, §3, §4

αvβ3+ M21 cells = assay: Wound scratch cell migration assay, M21 cells; type: cell-based
Method: (§5) As a biological readout for integrin signaling, we analyzed ligand effects on cell adhesion and migration by wound scratch assays (Figure 10A,B). […] Microscopical images were taken directly after wounding the cell monolayers and then after 9, 24, 48, and 72 h, respectively.
(§6) Figure 10 (A) Effect of integrin ligands on cancer cell migration. […] Microscopical measurements of wound gaps were taken directly after setting the wound scratch and then after 9, 24, 48, and 72 h, respectively. Wound scratch assays were repeated at least three times. The extent of wound gap closure [%]/cell coverage was calculated by a python script utilizing Canny’s Edge Detection algorithm as described under Materials and summarized in the corresponding histograms (see also Scheme S5 in the Supporting Information). (B) Adhesion of M21, OV-MZ-6, and HN cells in the presence of the respective integrin targeting ligand at low (1 nM) and high (1 μM) concentrations. […] Depicted are typical microscopical images of the respective cell monolayers.
(§7) The assays were performed according to a modified protocol as previously published.[94] Cells were cultivated on fibronectin-coated 12-well cell culture plates until cell monolayers reached an approximately 80% confluency. Then, the wound scratch was set utilizing a 200 μL pipet tip. Subsequently, fresh culture medium was added in the absence or presence of L1–L5 (concentration: 1 μM or 1 nM), and microscopical images (Zeiss, Oberkochen, Germany) were taken at two identical positions of the wound gap directly after wounding and then at 9, 24, 48, or 72 h of further cell cultivation. Each wound scratch assay was repeated three times. A custom python script was implemented to analyze wound gap closure over time: after cropping the images, we used the OpenCV[95] implementation of Canny’s Edge Detection Algorithm[96] to ensure reliable measurements even with variable lighting conditions.[97] As a first step, a 5 × 5 Gaussian filter was applied to remove background noise. The smoothened images were then filtered by a Sobel kernel[98] and the magnitude and direction of the intensity gradient of the images calculated. Then, a non-maximum suppression algorithm was applied to identify relevant pixels that presumably contribute to edges. In a final step, threshold hysteresis was utilized to distinguish true edges from variations in intensity or the remaining background noise. The resulting images were then segmented and binarized by use of a grid filter and analyzed with respect to cell-covered area relative to the start image of each series.

α5β1+ OV-MZ-6 cells = assay: Wound scratch cell migration assay, OV-MZ-6 cells; type: cell-based; conditions: OV-MZ-6 cells
Method: as §5, §6, §7
Scheme S5. Effect of integrin ligands on cancer cell migration (control cells to Fig. 10A in the main manuscript). a) Integrin αvβ3- OV-MZ-6 cells, α5β1- M21 cells, α5β1+ and αvβ3- and […]
mages of wound gaps were taken directly after setting the wound scratch and then after […], respectively. Wound scratch assays were repeated at least 3 times. The extent of wound gap closure [%]/cell coverage was calculated by a python script utilizing Canny’s Edge Detection algorithm11 as described in the Experimental Section and summarized in the corresponding histograms.
(1 picture or pasted object on this page, not shown here)

M21 cells = assay: Cell adhesion in the presence of ligand, M21 cells; type: cell-based; conditions: 1 μM
Method: as §6

glioblastoma = conditions: phase II and III trials; cited from earlier work
tumor angiogenesis = conditions: low dose; cited from earlier work

## RTDLDSLRT [linear peptide, internal standard for αvβ6, reference compound]
Human αvβ3-integrin
  IC50: > 1000 nM
Human α5β1-integrin
  IC50: > 1000 nM
Human αvβ6-integrin
  IC50: 29.5 ± 4.5 nM

## c(RGDf(NMe)V) (cyclo(RGD[dF][NMeV])) [cilengitide (L2), reference compound]
[1]; 1 nM, 5, 30 or 60 min
  FAK expression versus untreated cells: comparable to or slightly higher than in untreated
[1]; 1 μM, 5, 30 or 60 min
  FAK expression versus untreated cells: comparable to or slightly higher than in untreated
[1]; both concentrations (1 nM, 1 μM)
  Decrease of p-FAK levels within 60 min: approximately threefold
[1]; both concentrations (1 nM, 1 μM), up to 60 min
  p-FAK levels versus untreated cells: almost comparable to that in untreated M21 cells
[2]
  FAK expression versus untreated cells: comparable to or slightly higher than in untreated
αvβ3+ M21 cells; 1 nM
  Effect on wound gap closure / cell migration: increased wound gap closure
αvβ3+ M21 cells; 1 μM
  Effect on wound gap closure / cell migration: markedly delaying wound gap closure
αvβ3+ M21 cells; 1 μM, after 9 h
  Reduction of wound gap closure: approximately threefold
αvβ3+ M21 cells; 1 μM, within 72 h
  Cell coverage (wound gap closure): approximately 40%
α5β1+ OV-MZ-6 cells; 1 nM
  Effect on wound gap closure / cell migration: not effective
α5β1+ OV-MZ-6 cells; 1 μM, within 72 h
  Cell coverage (wound gap closure): approximately 60%
M21 cells
  Effect on cell adhesion / attachment: abrogating adhesion and spreading
M21 cells; listed as CIL/L2
  Effect on cell adhesion / attachment: performed as inhibitors of cell attachment
glioblastoma
  Clinical efficacy: poor clinical efficacy
Tumor angiogenesis
  Effect on tumor angiogenesis: rather promoted than inhibited tumor angiogenesis
